The values that follow come from publication PMC6273472, “Design, Synthesis and Biological Evaluation of 6-(2,6-Dichloro-3,5-dimethoxyphenyl)-4-substituted-1H-indazoles as Potent Fibroblast Growth Factor Receptor Inhibitors” (Molecules, 2016).

The target in one data set is FGFR1 (Homo sapiens, UniProt P11362). Description: ELISA kinase assay (FGFR1 enzymatic assay). Type of data set: biochemical. The note with it: for inhibition at 0.01 µM: 0.01 μmol/L compound; for inhibition at 0.01 µM / inhibition at 0.1 µM / inhibition at 1 µM: read-out: Enzyme Inhibition (%); for inhibition at 0.1 µM: 0.1 μmol/L compound; for inhibition at 1 µM: 1 μmol/L compound; for IC50: mean ± SD, two separate experiments. The method, then:
The effects of compounds on the activities of FGFR1 kinases were determined using enzyme-linked immunosorbent assays (ELISAs) with purified recombinant proteins. Briefly, 20 μg/mL poly (Glu, Tyr)4:1 (Sigma, St. Louis, MO, USA) was pre-coated in 96-well plates as a substrate. A 50-μL aliquot of 10 μmol/L ATP solution diluted in kinase reaction buffer (50 mmol/L HEPES [pH 7.4], 50 mmol/L MgCl2, 0.5 mmol/L MnCl2, 0.2 mmol/L Na3VO4, and 1 mmol/L DTT) was added to each well; 1 μL of various concentrations of compounds diluted in 1% DMSO (v/v) (Sigma) were then added to each reaction well. DMSO (1%, v/v) was used as the negative control. The kinase reaction was initiated by the addition of purified tyrosine kinase proteins diluted in 49 μL of kinase reaction buffer. After incubation for 60 min at 37 °C, the plate was washed three times with phosphate-buffered saline (PBS) containing 0.1% Tween 20 (T-PBS). Anti-phosphotyrosine (PY99) antibody (100 μL; 1:500, diluted in 5 mg/mL BSA T-PBS) was then added. After a 30-min incubation at 37 °C, the plate was washed three times, and 100 μL horseradish peroxidase-conjugated goat anti-mouse IgG (1:2000, diluted in 5 mg/mL BSA T-PBS) was added. The plate was then incubated at 37 °C for 30 min and washed 3 times. A 100-μL aliquot of a solution containing 0.03% H2O2 and 2 mg/mL o-phenylenediamine in 0.1 mol/L citrate buffer (pH 5.5) was added. The reaction was terminated by the addition of 50 μL of 2 mol/L H2SO4 as the color changed, and the plate was analyzed using a multi-well spectrophotometer (SpectraMAX 190, Molecular Devices, Palo Alto, CA, USA) at 490 nm. […] The IC50 values were calculated from the inhibition curves in two separate experiments.

Values joined by “and” are separate entries in the source; they are usually repeats but may differ in a detail not shown here. Identical values can stand only once.

FGFR1, sequence (P11362 22-822): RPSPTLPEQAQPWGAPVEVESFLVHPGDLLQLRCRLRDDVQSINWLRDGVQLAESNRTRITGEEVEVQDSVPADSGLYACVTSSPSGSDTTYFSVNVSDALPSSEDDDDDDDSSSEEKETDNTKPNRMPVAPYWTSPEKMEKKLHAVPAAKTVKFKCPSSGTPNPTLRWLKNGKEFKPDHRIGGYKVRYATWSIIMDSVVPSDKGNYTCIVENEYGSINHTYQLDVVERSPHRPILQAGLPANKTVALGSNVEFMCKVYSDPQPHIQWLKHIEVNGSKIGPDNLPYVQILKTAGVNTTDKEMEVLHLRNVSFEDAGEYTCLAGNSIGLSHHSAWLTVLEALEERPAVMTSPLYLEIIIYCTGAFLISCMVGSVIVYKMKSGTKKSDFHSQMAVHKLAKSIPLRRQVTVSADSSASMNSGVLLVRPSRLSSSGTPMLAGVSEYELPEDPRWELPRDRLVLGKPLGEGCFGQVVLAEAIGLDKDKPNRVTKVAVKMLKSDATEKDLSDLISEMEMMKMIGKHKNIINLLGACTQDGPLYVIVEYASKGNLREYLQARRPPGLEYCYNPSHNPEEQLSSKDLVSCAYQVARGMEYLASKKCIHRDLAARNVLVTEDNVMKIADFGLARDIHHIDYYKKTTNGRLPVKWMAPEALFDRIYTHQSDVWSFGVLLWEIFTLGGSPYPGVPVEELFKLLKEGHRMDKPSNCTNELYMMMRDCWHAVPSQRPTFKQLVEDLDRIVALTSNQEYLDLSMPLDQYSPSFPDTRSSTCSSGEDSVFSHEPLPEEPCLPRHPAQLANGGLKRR

On to `COC(=O)c1cccc(NC(=O)c2cc(-c3c(Cl)c(OC)cc(OC)c3Cl)cc3[nH]ncc23)c1` [Compound 12a, Methyl 3-(6-(2,6-dichloro-3,5-dimethoxyphenyl)-1H-indazole-4-carboxamido)benzoate], for which, at FGFR1, the inhibition at 0.01 µM worked out at 17.1% and the inhibition at 0.1 µM stood at 35.7%.
As to `COc1cc(OC)c(Cl)c(-c2cc(C(=O)Nc3cccc(C(C)=O)c3)c3cn[nH]c3c2)c1Cl` [Compound 10b, N-(3-Acetylphenyl)-6-(2,6-dichloro-3,5-dimethoxyphenyl)-1H-indazole-4-carboxamide], on FGFR1, the inhibition at 0.1 µM came out at 76.4% and the inhibition at 1 µM was 82.4%.
Taken in the same sequence, the figures for `COc1cc(NC(=O)c2cc(-c3c(Cl)c(OC)cc(OC)c3Cl)cc3[nH]ncc23)ccn1` [Compound 11b, 6-(2,6-Dichloro-3,5-dimethoxyphenyl)-N-(2-methoxypyridin-4-yl)-1H-indazole-4-carboxamide] were 49.5% and 84.3%.
Consider `COc1nccc(NC(=O)c2cc(-c3c(Cl)c(OC)cc(OC)c3Cl)cc3[nH]ncc23)n1` [Compound 11e, 6-(2,6-Dichloro-3,5-dimethoxyphenyl)-N-(2-methoxypyrimidin-4-yl)-1H-indazole-4-carboxamide], for which, at FGFR1, the inhibition at 0.1 µM amounted to 31% and the inhibition at 1 µM was found to be 57.4%.
For `CNC(=O)c1cccc(NC(=O)c2cc(-c3c(Cl)c(OC)cc(OC)c3Cl)cc3[nH]ncc23)c1` [Compound 12b, 6-(2,6-Dichloro-3,5-dimethoxyphenyl)-N-(3-(methylcarbamoyl)phenyl)-1H-indazole-4-carboxamide], the melting point lay in the range of 155 to 157 °C. Further, at FGFR1, the inhibition at 0.01 µM was 42.1%, the inhibition at 0.1 µM was 62.3% and it took 0.0386 ± 0.0002 µM to reach half-maximal inhibition (IC50).
For `COc1cc(NC(=O)c2cc(-c3c(Cl)c(OC)cc(OC)c3Cl)cc3[nH]ncc23)ncn1` [Compound 11d, 6-(2,6-Dichloro-3,5-dimethoxyphenyl)-N-(6-methoxypyrimidin-4-yl)-1H-indazole-4-carboxamide], on FGFR1, the inhibition at 0.1 µM came out at 43.1% and the inhibition at 1 µM was found to be 78.5%.
Take `COc1cc(OC)c(Cl)c(-c2cc(C(=O)Nc3cccc(N4CCN(C(C)=O)CC4)c3)c3cn[nH]c3c2)c1Cl` [Compound 13e, N-(3-(4-Acetylpiperazin-1-yl)phenyl)-6-(2,6-dichloro-3,5-dimethoxyphenyl)-1H-indazole-4-carboxamide]: the melting point is 209 to 211 °C. Also, at FGFR1, the inhibition at 0.01 µM worked out at 27.7%, the inhibition at 0.1 µM amounted to 64.7% and the half-inhibitory concentration (IC50) stood at 0.118 ± 0.0039 µM.
For `COc1cc(OC)c(Cl)c(-c2cc(C(=O)Nc3ccccc3)c3cn[nH]c3c2)c1Cl` [Compound 10a, 6-(2,6-Dichloro-3,5-dimethoxyphenyl)-N-phenyl-1H-indazole-4-carboxamide], the melting point lay in the range of 115 to 117 °C. At FGFR1, the inhibition at 0.01 µM was 27.3%, the inhibition at 0.1 µM was 58.8%, the inhibition at 1 µM is 84.1% and the half-maximal inhibitory concentration (IC50) amounted to 0.0691 ± 0.0198 µM.
Regarding `COc1cc(OC)c(Cl)c(-c2cc(C(=O)Nc3cccc(N4CCN(C)C4=O)c3)c3cn[nH]c3c2)c1Cl` [Compound 12e, 6-(2,6-Dichloro-3,5-dimethoxyphenyl)-N-(3-(3-methyl-2-oxoimidazolidin-1-yl)phenyl)-1H-indazole-4-carboxamide], on FGFR1, the inhibition at 0.01 µM is 17.2% and the inhibition at 0.1 µM came to 36.7%.
As for `COc1cc(OC)c(Cl)c(-c2cc(C(=O)Nc3cccc(-c4cncnc4)c3)c3cn[nH]c3c2)c1Cl` [Compound 12i, 6-(2,6-Dichloro-3,5-dimethoxyphenyl)-N-(3-(pyrimidin-5-yl)phenyl)-1H-indazole-4-carboxamide], the melting point was 177 to 179 °C. Moreover, on FGFR1, the inhibition at 0.01 µM came to 35.1%, the inhibition at 0.1 µM is 60.3% and the IC50 was 0.0862 ± 0.017 µM.
Consider `COc1cc(OC)c(Cl)c(-c2cc(C(=O)Nc3cccc(N4CCN(C)CC4)c3)c3cn[nH]c3c2)c1Cl` [Compound 13a, 6-(2,6-Dichloro-3,5-dimethoxyphenyl)-N-(3-(4-methylpiperazin-1-yl)phenyl)-1H-indazole-4-carboxamide], for which the melting point is 205 to 207 °C. Moreover, on FGFR1, the inhibition at 0.01 µM is 48.3%; the inhibition at 0.1 µM turned out to be 72.7%; the IC50 was ~0.0302 µM and 0.0302 µM.
Turning to `COc1ccc(NC(=O)c2cc(-c3c(Cl)c(OC)cc(OC)c3Cl)cc3[nH]ncc23)cc1` [Compound 10e, 6-(2,6-Dichloro-3,5-dimethoxyphenyl)-N-(4-methoxyphenyl)-1H-indazole-4-carboxamide], at FGFR1, the inhibition at 0.1 µM worked out at 11.9% and the inhibition at 1 µM is 68.5%.
Take `CCOC(=O)c1cccc(NC(=O)c2cc(-c3c(Cl)c(OC)cc(OC)c3Cl)cc3[nH]ncc23)c1` [Compound 12c, Ethyl 3-(6-(2,6-dichloro-3,5-dimethoxyphenyl)-1H-indazole-4-carboxamido)benzoate]: at FGFR1, the inhibition at 0.01 µM stood at 9.9% and the inhibition at 0.1 µM was 36.8%.
`COc1cc(OC)c(Cl)c(-c2cc(C(=O)Nc3cccc(-c4cnn(C)c4)c3)c3cn[nH]c3c2)c1Cl` [Compound 12h, 6-(2,6-Dichloro-3,5-dimethoxyphenyl)-N-(3-(1-methyl-1H-pyrazol-4-yl)phenyl)-1H-indazole-4-carboxamide] showed a melting point of 188 to 190 °C. Moreover, at FGFR1, the inhibition at 0.01 µM was 34.5%, the inhibition at 0.1 µM turned out to be 52.7% and the IC50 turned out to be 0.1029 ± 0.0006 µM.
As to `COc1cc(OC)c(Cl)c(-c2cc(C(=O)Nc3cccc(N4CCN(C(C)C)CC4)c3)c3cn[nH]c3c2)c1Cl` [Compound 13d, 6-(2,6-Dichloro-3,5-dimethoxyphenyl)-N-(3-(4-isopropylpiperazin-1-yl)phenyl)-1H-indazole-4-carboxamide], on FGFR1, the inhibition at 0.01 µM was found to be 7.2% and the inhibition at 0.1 µM was found to be 18.5%.
The compound `COc1cc(OC)c(Cl)c(-c2cc(C(=O)Nc3cccc(N4CCNCC4)c3)c3cn[nH]c3c2)c1Cl` [Compound 12g, 6-(2,6-Dichloro-3,5-dimethoxyphenyl)-N-(3-(piperazin-1-yl)phenyl)-1H-indazole-4-carboxamide] showed a melting point of 221 to 223 °C. Further, on FGFR1, the inhibition at 0.01 µM came to 45.1%, the inhibition at 0.1 µM was 60.9% and the IC50 was found to be 0.0788 ± 0.0142 µM.
Turning to `COc1cccc(NC(=O)c2cc(-c3c(Cl)c(OC)cc(OC)c3Cl)cc3[nH]ncc23)n1` [Compound 11a, 6-(2,6-Dichloro-3,5-dimethoxyphenyl)-N-(6-methoxypyridin-2-yl)-1H-indazole-4-carboxamide], on FGFR1, the inhibition at 0.1 µM stood at 47.2% and the inhibition at 1 µM was 79.2%.
With `COc1cc(OC)c(Cl)c(-c2cc(C(=O)Nc3cccc([N+](=O)[O-])c3)c3cn[nH]c3c2)c1Cl` [Compound 12d, 6-(2,6-Dichloro-3,5-dimethoxyphenyl)-N-(3-nitrophenyl)-1H-indazole-4-carboxamide], at FGFR1, the inhibition at 0.01 µM was 17.4% and the inhibition at 0.1 µM amounted to 31.6%.
Turning to `C=CCN1CCN(c2cccc(NC(=O)c3cc(-c4c(Cl)c(OC)cc(OC)c4Cl)cc4[nH]ncc34)c2)CC1` [Compound 13c, N-(3-(4-Allylpiperazin-1-yl)phenyl)-6-(2,6-dichloro-3,5-dimethoxyphenyl)-1H-indazole-4-carboxamide], at FGFR1, the inhibition at 0.01 µM came out at 35.7%, the inhibition at 0.1 µM is 41.3% and half-maximal inhibition (IC50) required 0.464 ± 0.0991 µM.
As for `CCN1CCN(c2cccc(NC(=O)c3cc(-c4c(Cl)c(OC)cc(OC)c4Cl)cc4[nH]ncc34)c2)CC1` [Compound 13b, 6-(2,6-Dichloro-3,5-dimethoxyphenyl)-N-(3-(4-ethylpiperazin-1-yl)phenyl)-1H-indazole-4-carboxamide], at FGFR1, the inhibition at 0.01 µM stood at 13.7%, the inhibition at 0.1 µM was 26.4% and the IC50 turned out to be 0.328 ± 0.0657 µM.
As for `COc1cccc(NC(=O)c2cc(-c3c(Cl)c(OC)cc(OC)c3Cl)cc3[nH]ncc23)c1` [Compound 10d, 6-(2,6-Dichloro-3,5-dimethoxyphenyl)-N-(3-methoxyphenyl)-1H-indazole-4-carboxamide], at FGFR1, the inhibition at 0.1 µM turned out to be 57% and the inhibition at 1 µM was determined as 78.4%.
Taken in the same sequence, the figures for `COc1ccnc(NC(=O)c2cc(-c3c(Cl)c(OC)cc(OC)c3Cl)cc3[nH]ncc23)c1` [Compound 11c, 6-(2,6-Dichloro-3,5-dimethoxyphenyl)-N-(4-methoxypyridin-2-yl)-1H-indazole-4-carboxamide] were 42.3% and 80%.
Taken in the same sequence, the figures for `COc1cc(OC)c(Cl)c(-c2cc(C(=O)Nc3ccc(C(C)=O)cc3)c3cn[nH]c3c2)c1Cl` [Compound 10c, N-(4-Acetylphenyl)-6-(2,6-dichloro-3,5-dimethoxyphenyl)-1H-indazole-4-carboxamide] were 32.2% and 52.9%.
